Laboratory results as given in patent US20230416329A1, “A PEPTIDE WITH DISULFIDE BONDS AND INHIBITORY ACTIVITY AGAINST SERINE PROTEASES, DERIVED HYBRID PEPTIDES THEREOF, AND USES THEREOF” (INSTITUTE OF MATERIA MEDICA , CHINESE ACADEMY OF MEDICAL …, priority 2020, published 2023).
Like-named read-outs stand apart in the source and are kept apart here. Bridge positions count the residues as written; N and C are the ends. Square brackets hold non-standard residues; d marks the D form. Peptide text beside a SMILES is read from it. Hyp = O=C(O)[C@@H]1C[C@@H](O)CN1; Nle = CCCC[C@H](N)C(=O)O

Molecular target: T1, bovine trypsin (Bos taurus, UniProt P00760)
T1 sequence (P00760 24-246): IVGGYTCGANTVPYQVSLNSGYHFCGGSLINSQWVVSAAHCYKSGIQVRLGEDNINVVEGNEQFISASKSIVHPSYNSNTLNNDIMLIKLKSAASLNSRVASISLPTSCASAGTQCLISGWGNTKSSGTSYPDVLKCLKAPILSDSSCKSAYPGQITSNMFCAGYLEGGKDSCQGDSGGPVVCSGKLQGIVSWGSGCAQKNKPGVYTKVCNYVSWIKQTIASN
Test: Trypsin inhibitory activity of peptides (BApNA hydrolysis, OD405; IC50, Ki, residual activity)
Assay type: biochemical
Conditions: for IC50: trypsin 50 nM, BApNA 1.22 mM, read-out: IC50; for Ki: Ki=IC50/(1+S/Km), Km 0.33 mM, read-out: Ki
How it was run: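 Trypsin (50 nM final) preincubated with peptides at 37 °C in 50 mM Tris-HCl pH 7.8, 20 mM CaCl2; BApNA added (1.22 mM final), 260 min at 37 °C, then OD405 read. Residual activity from enzyme-only and substrate-only controls; IC50 fitted and converted to Ki via Ki=IC50/(1+S/Km), Km measured separately for BApNA.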

Structure (SMILES) | inhibitory activity against trypsin (in words) | IC50 [nM] | Ki [nM] | other results
CC[C@H](C)[C@@H]1NC(=O)[C@@H]2CCCN2C(=O)[C@@H]2CCCN2C(=O)[C@H]([C@@H](C)CC)NC(=O)[C@H](C)NC(=O)[C@H](CCCNC(=N)N)NC(=O)[C@H]([C@@H](C)O)NC(=O)[C@H](C)NC(=O)[C@H](CCCNC(=N)N)NC(=O)CNC(=O)[C@@H](N)CSSC[C@@H](C(=O)N[C@@H](Cc2ccccc2)C(=O)O)NC1=O [BT22] (H-CGRATRAIPPICF-OH; disulfide 1-12; N-terminus and C-terminus assumed) | reduced their anti-trypsin activities |  |  | 
CC[C@H](C)[C@@H]1NC(=O)[C@@H]2CCCN2C(=O)[C@@H]2CCCN2C(=O)[C@H]([C@@H](C)CC)NC(=O)[C@H](CO)NC(=O)[C@H](CCCCN)NC(=O)[C@H]([C@@H](C)O)NC(=O)[C@@H](NC(=O)[C@@H](N)CCCNC(=N)N)CSSC[C@@H](C(=O)N[C@@H](Cc2ccccc2)C(=O)O)NC1=O [BT45] (H-RCTKSIPPICF-OH; disulfide 2-10; C-terminus assumed) |  | 30 |  | Residual trypsin activity (peptide 0.000098 μM): 99.3 ± 5.3%; Residual trypsin activity (peptide 0.00098 μM): 104.3 ± 6.0%; Residual trypsin activity (peptide 0.0098 μM): 100.7 ± 5.0%; Residual trypsin activity (peptide 0.02439 μM): 67.4 ± 2.6%; Residual trypsin activity (peptide 0.0390 μM): 42.7 ± 2.9%; Residual trypsin activity (peptide 0.0488 μM): 27.3 ± 5.5%; Residual trypsin activity (peptide 0.07317 μM): 10.8 ± 1.6%; Residual trypsin activity (peptide 0.098 μM): 6.3 ± 0.4%; Residual trypsin activity (peptide 0.98 μM): 0.4 ± 0.0%; Residual trypsin activity (peptide 9.76 μM): 0.0 ± 0.0%
CC[C@H](C)[C@@H]1NC(=O)[C@@H]2CCCN2C(=O)[C@@H]2CCCN2C(=O)[C@H]([C@@H](C)CC)NC(=O)[C@H](CO)NC(=O)[C@H](CCCCN)NC(=O)[C@H]([C@@H](C)O)NC(=O)[C@H](Cc2c[nH]cn2)NC(=O)[C@H](CCCNC(=N)N)NC(=O)CNC(=O)[C@@H](N)CSSC[C@@H](C(=O)N[C@@H](Cc2ccccc2)C(=O)O)NC1=O [BT56] (H-CGRHTKSIPPICF-OH; disulfide 1-12; N-terminus and C-terminus assumed) |  | 110 | 20 | 
CC[C@H](C)[C@@H]1NC(=O)[C@H](CO)NC(=O)[C@H](CCCCN)NC(=O)[C@H]([C@@H](C)O)NC(=O)[C@H](Cc2c[nH]c3ccccc23)NC(=O)[C@H](CCCNC(=N)N)NC(=O)CNC(=O)[C@@H](N)CSSC[C@@H](C(=O)O)NC(=O)[C@@H]2CCCN2C(=O)[C@H](CCCCN)NC(=O)[C@@H]2CCCN2C(=O)[C@@H]2CCCN2C1=O [BT38] (H-CGRWTKSIPPKPC-OH; disulfide 1-13 (inferred); N-terminus and C-terminus assumed) |  | > 50000 |  | 
CC[C@H](C)[C@@H]1NC(=O)[C@@H]2CCCN2C(=O)[C@@H]2CCCN2C(=O)[C@H]([C@@H](C)CC)NC(=O)[C@H](CO)NC(=O)[C@H](CCCCN)NC(=O)[C@H]([C@@H](C)O)NC(=O)[C@H](CC(C)C)NC(=O)[C@H](CCCNC(=N)N)NC(=O)CNC(=O)[C@@H](N)CSSC[C@@H](C(=O)N[C@@H](Cc2ccccc2)C(=O)O)NC1=O [BT48] (H-CGRLTKSIPPICF-OH; disulfide 1-12; N-terminus and C-terminus assumed) |  |  | 40 | 
CC[C@H](C)[C@@H]1NC(=O)[C@@H]2C[C@@H](O)CN2C(=O)[C@@H]2CCCN2C(=O)[C@H]([C@@H](C)CC)NC(=O)[C@H](CO)NC(=O)[C@H](CCCCN)NC(=O)[C@H]([C@@H](C)O)NC(=O)[C@H](C)NC(=O)[C@H](CCCNC(=N)N)NC(=O)[C@H](C)NC(=O)[C@@H](N)CSSC[C@@H](C(=O)N[C@@H](Cc2ccccc2)C(=O)O)NC1=O [BT70] (H-CARATKSIP[Hyp]ICF-OH; disulfide 1-12; C-terminus assumed) | excellent trypsin inhibitory activities |  | 30 | 
CC(C)C[C@@H]1NC(=O)[C@H](CO)NC(=O)[C@H](CCCCN)NC(=O)[C@H]([C@@H](C)O)NC(=O)[C@H](C)NC(=O)[C@H](CCCNC(=N)N)NC(=O)CNC(=O)[C@@H](N)CSSC[C@@H](C(=O)N[C@@H](Cc2ccccc2)C(=O)O)NC(=O)[C@H](C)NC(=O)[C@@H]2CCCN2C(=O)[C@@H]2CCCN2C1=O [BT14] (H-CGRATKSLPPACF-OH; disulfide 1-12; N-terminus and C-terminus assumed) | reduced their anti-trypsin activities |  |  | 
CC[C@H](C)[C@@H]1NC(=O)[C@@H]2CCCN2C(=O)[C@@H]2CCCN2C(=O)[C@H]([C@@H](C)CC)NC(=O)[C@H](CO)NC(=O)[C@H](CCCCN)NC(=O)[C@H]([C@@H](C)O)NC(=O)CNC(=O)[C@H](CCCCN)NC(=O)[C@H](C)NC(=O)CNC(=O)[C@@H](N)CSSC[C@@H](C(=O)N[C@@H](CC(=O)O)C(=O)O)NC(=O)[C@H](Cc2ccccc2)NC(=O)CNC1=O [BT4] (H-CGAKGTKSIPPIGFCD-OH; disulfide 1-15 (inferred); N-terminus and C-terminus assumed) |  | > 50000 |  | 
CC[C@H](C)[C@@H]1NC(=O)[C@H](CO)NC(=O)[C@H](CCCCN)NC(=O)[C@H]([C@@H](C)O)NC(=O)[C@@H](NC(=O)[C@@H](N)CCCNC(=N)N)CSSC[C@@H](C(=O)N[C@@H](Cc2ccccc2)C(=O)O)NC(=O)[C@H](Cc2c[nH]cn2)NC(=O)[C@@H]2CCCN2C(=O)[C@@H]2CCCN2C1=O [BT62] (H-RCTKSIPPHCF-OH; disulfide 2-10; N-terminus and C-terminus assumed) |  | 70 | 10 | 
CCCC[C@@H]1NC(=O)[C@H](CCCNC(=N)N)NC(=O)CNC(=O)[C@@H](N)CSSC[C@@H](C(=O)N[C@@H](Cc2ccccc2)C(=O)O)NC(=O)[C@H]([C@@H](C)CC)NC(=O)[C@@H]2CCCN2C(=O)[C@@H]2CCCN2C(=O)[C@H]([C@@H](C)CC)NC(=O)[C@H](CO)NC(=O)[C@H](CCCCN)NC(=O)[C@H]([C@@H](C)O)NC1=O [BT50] (H-CGR[Nle]TKSIPPICF-OH; disulfide 1-12; C-terminus assumed) | good inhibitory activities against trypsin | 70 | 10 | inhibitory activity against trypsin (in words) (listed as SEQ ID NO: 50): excellent trypsin inhibitory activities; Residual trypsin activity (peptide 0.000098 μM): 106.1 ± 2.6%; Residual trypsin activity (peptide 0.00098 μM): 108.5 ± 1.0%; Residual trypsin activity (peptide 0.0098 μM): 105.0 ± 3.9%; Residual trypsin activity (peptide 0.0488 μM): 73.5 ± 1.6%; Residual trypsin activity (peptide 0.0780 μM): 48.9 ± 1.8%; Residual trypsin activity (peptide 0.098 μM): 22.6 ± 5.7%; Residual trypsin activity (peptide 0.98 μM): 0.1 ± 0.0%; Residual trypsin activity (peptide 9.76 μM): 0.0 ± 0.1%; Residual trypsin activity (peptide 97.56 μM): 0.0 ± 0.1%
CC[C@H](C)[C@@H]1NC(=O)[C@@H]2CCCN2C(=O)[C@@H]2CCCN2C(=O)[C@H]([C@@H](C)CC)NC(=O)[C@H](CO)NC(=O)[C@H](CCCCN)NC(=O)[C@H]([C@@H](C)O)NC(=O)[C@H](C(C)C)NC(=O)[C@H](CCCNC(=N)N)NC(=O)CNC(=O)[C@@H](N)CSSC[C@@H](C(=O)N[C@@H](Cc2ccccc2)C(=O)O)NC1=O [BT51] (H-CGRVTKSIPPICF-OH; disulfide 1-12) | excellent trypsin inhibitory activities |  | 90 | 
CC[C@H](C)[C@@H]1NC(=O)[C@@H]2CCCN2C(=O)[C@@H]2CCCN2C(=O)[C@H]([C@@H](C)CC)NC(=O)[C@H](CO)NC(=O)[C@H](CCCNC(=N)N)NC(=O)[C@H]([C@@H](C)O)NC(=O)[C@H](C)NC(=O)[C@H](CCCNC(=N)N)NC(=O)CNC(=O)[C@@H](N)CSSC[C@@H](C(=O)N[C@@H](Cc2ccc(O)cc2)C(=O)O)NC1=O [BT18] (H-CGRATRSIPPICY-OH; disulfide 1-12; N-terminus and C-terminus assumed) | significant impact on their anti-trypsisn activities |  |  | 
CC[C@H](C)[C@@H]1NC(=O)[C@@H]2CCCN2C(=O)[C@@H]2CCCN2C(=O)[C@H]([C@@H](C)CC)NC(=O)[C@H](CO)NC(=O)[C@H](CCCCN)NC(=O)[C@H]([C@@H](C)O)NC(=O)[C@H](C)NC(=O)[C@H](CCCNC(=N)N)NC(=O)[C@H](C(C)C)NC(=O)[C@@H](N)CSSC[C@@H](C(=O)N[C@@H](Cc2ccccc2)C(=O)O)NC1=O [BT71] (H-CVRATKSIPPICF-OH; disulfide 1-12; N-terminus and C-terminus assumed) | excellent trypsin inhibitory activities | 110 | 20 | 
CC[C@H](C)[C@@H]1NC(=O)[C@H](CO)NC(=O)[C@H](CCCNC(=N)N)NC(=O)[C@H]([C@@H](C)O)NC(=O)[C@@H](NC(=O)[C@@H](N)CCCNC(=N)N)CSSC[C@@H](C(=O)N[C@@H](Cc2c[nH]c3ccccc23)C(=O)O)NC(=O)[C@H](Cc2c[nH]cn2)NC(=O)[C@@H]2CCCN2C(=O)[C@@H]2CCCN2C1=O [BT61] (H-RCTRSIPPHCW-OH; disulfide 2-10; N-terminus and C-terminus assumed) |  |  | 190 | 
CC[C@H](C)[C@@H]1NC(=O)[C@@H]2CCCN2C(=O)[C@@H]2CCCN2C(=O)[C@H]([C@@H](C)CC)NC(=O)[C@H](CO)NC(=O)[C@H](CCCCN)NC(=O)[C@H]([C@@H](C)O)NC(=O)[C@H](C)NC(=O)[C@H]([C@@H](C)O)NC(=O)CNC(=O)[C@@H](N)CSSC[C@@H](C(=O)N[C@@H](CC(N)=O)C(=O)O)NC1=O [BT24] (H-CGTATKSIPPICN-OH; disulfide 1-12; N-terminus and C-terminus assumed) | significant impact on their anti-trypsisn activities |  |  | 
